The record followed here is ChEMBL document CHEMBL3044659, “Docking, synthesis, and pharmacological evaluation of isoindoline derivatives as anticonvulsant agents” (Med Chem Res, 2013).

In assay [1] the target is Sodium channel protein type 2 subunit alpha (Homo sapiens, UniProt Q99250). As to the kind of experiment: Binding affinity to Nav 1.2 (unknown origin).
Assay [2] concerns Mus musculus. As to the kind of experiment: Anticonvulsant activity in pentylenetetrazole-induced seizure Swiss Mus musculus (mouse) model assessed as increase in clonic seizure threshold at 40 mg/kg, ip measured after 30 min (reference value: 38.9 +/-1.01 mg/kg). The format is functional. Conditions: route intraperitoneal.
Assay [3] deals with Mus musculus. Kind of assay: Anticonvulsant activity in pentylenetetrazole-induced seizure Swiss Mus musculus (mouse) model assessed as increase in tonic seizure threshold at 40 mg/kg, ip measured after 30 min (reference value: 59.58 +/-1.01 mg/kg). The format is functional. Conditions: route intraperitoneal.
The subject of assay [4] is Mus musculus. Kind of assay: Anticonvulsant activity in pentylenetetrazole-induced seizure Swiss Mus musculus (mouse) model assessed as increase in clonic seizure threshold at 10 to 20 mg/kg, ip measured after 30 min. The format is functional, organism-based.

The structures appear in SMILES notation. The source made the active and inactive calls.

Sequence of Sodium channel protein type 2 subunit alpha (Q99250 whole entry): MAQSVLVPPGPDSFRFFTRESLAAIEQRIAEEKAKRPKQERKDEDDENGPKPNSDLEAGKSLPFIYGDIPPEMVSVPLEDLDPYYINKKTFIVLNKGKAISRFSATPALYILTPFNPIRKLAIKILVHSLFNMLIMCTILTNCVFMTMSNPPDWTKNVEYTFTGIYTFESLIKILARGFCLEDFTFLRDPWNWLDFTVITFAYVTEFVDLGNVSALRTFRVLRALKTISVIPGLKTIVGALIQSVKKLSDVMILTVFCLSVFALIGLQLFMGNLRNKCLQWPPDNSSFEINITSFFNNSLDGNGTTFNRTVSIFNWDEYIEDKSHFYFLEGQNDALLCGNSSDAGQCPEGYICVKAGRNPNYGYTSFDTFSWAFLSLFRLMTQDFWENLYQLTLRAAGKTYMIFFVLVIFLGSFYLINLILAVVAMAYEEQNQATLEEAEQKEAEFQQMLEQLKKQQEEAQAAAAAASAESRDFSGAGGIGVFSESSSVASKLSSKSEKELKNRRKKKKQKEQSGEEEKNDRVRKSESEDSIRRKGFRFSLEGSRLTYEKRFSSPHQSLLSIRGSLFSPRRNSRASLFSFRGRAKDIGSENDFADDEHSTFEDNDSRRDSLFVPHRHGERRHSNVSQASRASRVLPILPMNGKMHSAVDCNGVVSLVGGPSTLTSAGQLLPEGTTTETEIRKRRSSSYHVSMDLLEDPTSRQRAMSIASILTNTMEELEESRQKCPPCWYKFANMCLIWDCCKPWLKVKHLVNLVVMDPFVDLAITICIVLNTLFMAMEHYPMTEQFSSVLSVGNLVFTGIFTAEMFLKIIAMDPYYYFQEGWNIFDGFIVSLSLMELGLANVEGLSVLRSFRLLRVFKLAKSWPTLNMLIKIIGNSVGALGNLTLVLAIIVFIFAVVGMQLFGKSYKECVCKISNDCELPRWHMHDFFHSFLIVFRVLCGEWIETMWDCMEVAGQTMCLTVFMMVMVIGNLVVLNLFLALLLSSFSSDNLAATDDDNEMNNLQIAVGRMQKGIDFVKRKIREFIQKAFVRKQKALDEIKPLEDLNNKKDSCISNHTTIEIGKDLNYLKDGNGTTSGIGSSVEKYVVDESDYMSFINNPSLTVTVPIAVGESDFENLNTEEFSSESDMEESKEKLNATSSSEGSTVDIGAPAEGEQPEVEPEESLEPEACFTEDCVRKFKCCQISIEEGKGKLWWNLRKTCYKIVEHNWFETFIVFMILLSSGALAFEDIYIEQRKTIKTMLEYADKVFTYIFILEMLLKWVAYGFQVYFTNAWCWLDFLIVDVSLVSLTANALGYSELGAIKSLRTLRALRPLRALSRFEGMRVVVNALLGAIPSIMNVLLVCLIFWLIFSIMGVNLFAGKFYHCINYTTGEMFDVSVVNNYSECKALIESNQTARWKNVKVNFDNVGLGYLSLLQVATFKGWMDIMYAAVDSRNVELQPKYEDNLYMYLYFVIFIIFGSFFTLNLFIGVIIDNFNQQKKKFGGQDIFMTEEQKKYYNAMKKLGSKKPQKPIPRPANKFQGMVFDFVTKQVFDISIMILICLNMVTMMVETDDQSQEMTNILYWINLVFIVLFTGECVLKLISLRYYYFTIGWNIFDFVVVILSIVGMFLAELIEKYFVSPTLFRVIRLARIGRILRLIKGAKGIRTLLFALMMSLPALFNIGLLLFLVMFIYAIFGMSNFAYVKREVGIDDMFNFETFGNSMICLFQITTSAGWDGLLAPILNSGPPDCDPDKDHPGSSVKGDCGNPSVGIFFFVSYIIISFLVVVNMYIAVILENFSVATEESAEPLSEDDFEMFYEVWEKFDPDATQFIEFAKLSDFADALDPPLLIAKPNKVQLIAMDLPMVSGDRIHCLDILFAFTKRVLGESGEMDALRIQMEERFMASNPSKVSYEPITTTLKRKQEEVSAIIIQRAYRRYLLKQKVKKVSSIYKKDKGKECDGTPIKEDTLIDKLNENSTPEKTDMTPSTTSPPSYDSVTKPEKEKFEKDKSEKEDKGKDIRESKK

As for `O=C(O)c1ccc(N2C(=O)c3ccccc3C2=O)cc1O`, the affinity in assay [1] corresponds to a Ki of 78.4 µM. Further, the “Clonic seizure threshold (PTZ dose)” value in assay [2] stood at 52.1 mg/kg. Further, the “Tonic seizure threshold (PTZ dose)” value in assay [3] came out at 64.97 mg/kg.

`CC(=O)Nc1ccc(N2C(=O)c3ccccc3C2=O)cc1` yielded a Ki in assay [1] of 18.3 µM. Further, the “Clonic seizure threshold (PTZ dose)” value in assay [2] worked out at 40.37 mg/kg. Also, the “Tonic seizure threshold (PTZ dose)” value in assay [3] was found to be 86.37 mg/kg.

Take `O=C(O)c1ccccc1N1C(=O)c2ccccc2C1=O` [N-PHTHALOYLANTHRANILIC ACID]: in assay [1], the Ki was found to be 338 µM. In assay [2], the “Clonic seizure threshold (PTZ dose)” value worked out at 42.95 mg/kg. In addition, the “Tonic seizure threshold (PTZ dose)” value in assay [3] amounted to 58.08 mg/kg.

Turning to `O=C1c2ccccc2C(=O)N1c1ccc([N+](=O)[O-])cc1`, in assay [1], affinity was put at a Ki of 65.6 µM. In addition, in assay [2], the “Clonic seizure threshold (PTZ dose)” value worked out at 41.12 mg/kg. Further, the “Tonic seizure threshold (PTZ dose)” value in assay [3] came to 61.6 mg/kg.

`O=C1c2ccccc2C(=O)N1c1cccc([N+](=O)[O-])c1` gave a Ki in assay [1] of 21.8 µM. In addition, the “Clonic seizure threshold (PTZ dose)” value in assay [2] turned out to be 64.89 mg/kg. The “Tonic seizure threshold (PTZ dose)” value in assay [3] was 96.84 mg/kg.

In assay [1], `O=C(O)c1ccc(N2C(=O)c3ccccc3C2=O)cc1` displayed a Ki of 50.4 µM. Also, the “Clonic seizure threshold (PTZ dose)” value in assay [2] stood at 46.65 mg/kg. Besides, the “Tonic seizure threshold (PTZ dose)” value in assay [3] amounted to 79.94 mg/kg.

Molecule `COc1ccc(N2C(=O)c3ccccc3C2=O)c(N)c1` registered a Ki in assay [1] of 20.3 µM. In assay [2], the “Clonic seizure threshold (PTZ dose)” value came to 56.34 mg/kg. Moreover, the “Tonic seizure threshold (PTZ dose)” value in assay [3] is 98.12 mg/kg.

In assay [1], `COc1ccc(N2C(=O)c3ccccc3C2=O)c([N+](=O)[O-])c1` came in with a Ki of 108 µM. Also, the “Clonic seizure threshold (PTZ dose)” value in assay [2] came to 49.4 mg/kg. Also, the “Tonic seizure threshold (PTZ dose)” value in assay [3] is 61.92 mg/kg.

Take `O=C1NC(=O)C(c2ccccc2)(c2ccccc2)N1` [PHENYTOIN]: the “Clonic seizure threshold (PTZ dose)” value in assay [2] was 49.2 mg/kg. The “Tonic seizure threshold (PTZ dose)” value in assay [3] was 115 mg/kg. Moreover, the result in assay [4] was inactive.

For the molecule `NS(=O)(=O)c1ccc(N2C(=O)c3ccccc3C2=O)cc1`, the Ki in assay [1] was determined as 16 µM. Further, the “Clonic seizure threshold (PTZ dose)” value in assay [2] was found to be 33.4 mg/kg. Moreover, the “Tonic seizure threshold (PTZ dose)” value in assay [3] came to 60.56 mg/kg.

Molecule `NS(=O)(=O)c1nnc(N2C(=O)c3ccccc3C2=O)s1` displayed a Ki in assay [1] of 61.1 µM. Also, in assay [2], the “Clonic seizure threshold (PTZ dose)” value stood at 45.14 mg/kg. Further, in assay [3], the “Tonic seizure threshold (PTZ dose)” value was 62.35 mg/kg.

On to `O=C1c2ccccc2C(=O)N1c1ccccc1[N+](=O)[O-]`, for which affinity in assay [1] was put at a Ki of 134 µM. Moreover, the “Clonic seizure threshold (PTZ dose)” value in assay [2] was found to be 46.34 mg/kg. Besides, in assay [3], the “Tonic seizure threshold (PTZ dose)” value is 65.66 mg/kg.

The term Ki denotes the equilibrium dissociation constant of an inhibitor or competing ligand from its target.
